Laboratory results: patent US10736912B2, “Compositions containing PUFA and/or uridine and methods of use thereof” (MASSACHUSETTS INSTITUE OF TECHNOLOGY, priority 2005, dated 2020)

Tests used:
[1] = test system: PC-12 cells; assay: 14C-choline incorporation into phospholipids in PC-12 cells; type: cell-based
Description: PC-12 cells were maintained in Dulbecco's modified Eagle's medium (DMEM)+10% fetal bovine serum (FBS). For experiments, cells were grown in quintuplicate collagen-coated 35 millimeter (mm) dishes. Cells were incubated for 18 hours (hr) in serum-free DMEM containing 28 μM choline+/−5 micromolar (μM) of DHA, oleic acid, or palmitic acid. Cells were then labeled for 2.5 hr with 0.5 microcurie (μCi)/ml ^14C-choline in serum-free DMEM containing 10-micromolar (μM) choline.
Cells were homogenized in 100 volumes of ice-cold deionized water using a tissue degrader (Polytron PT 10-35, Kinematica AG, Switzerland); 1 ml of aliquots were then mixed with 3 ml of chloroform+methanol mixture (2:1 v/v) and vortexed vigorously for 30 seconds. After cooling for 1 h on ice, the mixture was mixed sequentially with 3 ml of chloroform+methanol mixture (2:1 v/v) and 1 ml of ice-cold deionized water. The mixture was vortexed vigorously and allowed to stand overnight in the cold room (18 h). The organic (lower) and aqueous (upper) phases of the mixtures were separated by centrifugation (10 min at 4° C.; 1000 g). An aliquot (2 ml) of the upper phase was used for determination of CDP-Choline (see below), and 0.1-0.4 ml aliquots of the lower phase were dried under vacuum for phospholipid analysis. Residues of 0.1 ml aliquots of the lower phase were assayed for total phospholipid content by measuring phosphorus. Residues of 0.4 ml aliquots of the lower phase were reconstituted in 40 μl methanol and subjected to thin-layer chromatography using silica G plates (Adsorbosil Plus-1®, Alltech), and a system consisting of chloroform/ethanol/triethylamine/water (30:34:30:8) as the mobile phase. Phospholipid standards were used to identify the corresponding bands under UV light after the plates were sprayed with 0.1% diphenylhexatriene in petroleum ether. Bands for individual phospholipid classes (PC, PE, SM, PS and PI) were scraped off the plates and extracted into 1 ml of methanol; dried under vacuum; and assayed for phosphorus content. Total phosphorus was determined by comparison with standard curves by using KH2PO4 run with each assay. […] Absorbance was measured spectrophotometrically at 820 nm. Phospholipid mass was determined by multiplying the phosphorus content by 25.
In order to assess the effect of omega-3 fatty acids on phospholipid synthesis, PC-12 cells were incubated with ^14C-labeled choline, following an 18-hour pre-incubation with or without DHA. Incorporation of label into phospholipids was then measured. […]
To further characterize the stimulation of phospholipid synthesis by omega-3 fatty acids, PC-12 cells were pre-treated with different doses of DHA and exposed to labeled choline as described in Example 1, then incorporation of ^14C-label into phospholipids was measured. […]

[2] = test system: SHSY-5Y cells; assay: 14C-choline incorporation into phospholipids in SHSY-5Y cells; type: cell-based, human; conditions: 10 μM fatty acid, 18 hr; FIG. 3A
Description: SHSY-5Y cells were grown to near confluency in DMEM+10% FBS in 35 mm dishes. Cells were incubated for 18 hr in serum-free DMEM+1% FBS containing 30 μM choline+/−10 μM of DHA, arachidonic acid, or palmitic acid. Cells were then labeled, and labeled phospholipids were quantified as described for Example 1.
DHA was dissolved in ethanol to a […] concentration and frozen in 10 microliter aliquots at −80° C. For each experiment, one aliquot was diluted in ethanol to 10 micromolar; the volume giving the desired final solution in incubation medium was mixed with an equal volume of BSA solution (1 gm/ml).
The effect of omega-6 fatty acids on phospholipid synthesis was next examined in SHSY-5Y cells, a human neuroblastoma cell line. In this case, phospholipid synthesis was enhanced by arachidonic acid, an omega-6 fatty acid, but not by DHA or palmitic acid (FIG. 3A).
The effect of arachidonic acid on phospholipid synthesis in SHSY-5Y cells was further characterized as described for omega-3 fatty acids and PC-12 cells in Example 2.

[3] = test system: brain phospholipid levels; assay: Brain phospholipid levels in rat pups of treated pregnant and nursing mothers; type: in vivo; conditions: for PC / PE / PI / SM / Total Phospholipids: rat pups, postnatal day 20, mean
Description: In another study, pregnant rats were allowed to consume ad libitum, for 10 days before parturition and 20 days while nursing, either a choline-containing control diet or this diet supplemented with uridine as UMP; half of each group also received DHA or its diluent daily, by gavage. Pups were then sacrificed and brain slices were examined to determine numbers of hippocampal dendritic spines.
Pregnant and nursing rats were administered DHA and/or uridine as described in Example 9. At 20 days post-birth, rats were sacrificed and brain samples were obtained and assayed for phospholipids. Administration of DHA alone increased brain PC, PI, PE, and sphingomyelin (SM) per cell (DNA) by 36, 166, 38, and 78%, respectively. UMP markedly amplified the effects of DHA to 66, 210, 68, and 99% of control, respectively (Table 8). These increases were greater than those observed in adult animals. Similar results were obtained when normalizing to protein (Table 9). Thus, administration of DHA and/or uridine to pregnant and nursing mothers is able to increase phospholipid levels in the offspring.

[4] = test system: Rat hippocampal cells; assay: 14C-choline incorporation into PC in cultured hippocampal neurons; type: cell-based; conditions: DHA+choline pre-treatment; 14C-choline 2 h; FIG. 10
Description: Rat hippocampal cells were cultured for 3 weeks in Neutrobasal plus B27 medium, to reach full maturation. On the day of the experiment, cells were incubated with DMEM+choline, with or without added DHA. ^14C-choline was added, cells were incubated for an additional 2 h, and newly-formed ^14C-labeled PC was extracted and measured as described in Example 1.
To determine the effect of DHA on phospholipids in neurons in short-term culture, neurons were pre-treated with DHA+choline. […] These findings confirm that DHA increases phospholipid levels in brain and neural cells.

[5] = Table 9, nmol per microgram DNA

For `CCC=CCC=CCC=CCC=CCC=CCC=CCCC(=O)O` [DHA, 4,7,10,13,16,19-docosahexaenoic acid], the “Phosphatidylcholine (PC) synthesis significantly increased (incorporation of 14C label into PC)” value ([1]; 5 μM fatty acid, 18 hr pre-incubation, then 14C-choline 2.5 hr, FIG. 1) was “significantly increased”, the “Augmentation of phospholipid synthesis” value ([1]; different doses of DHA, FIG. 2) was “dose-dependent” and the Phospholipid synthesis enhanced [2] was “not”. It also gave a PC ([3]; Table 8, nmol per mg protein) of 115.7 nmol/mg protein, a PE ([3]; Table 8, nmol per mg protein) of 95.7 nmol/mg protein and a PI ([3]; Table 8, nmol per mg protein) of 5.49 nmol/mg protein. The SM ([3]; Table 8, nmol per mg protein) was 7.52 nmol/mg protein, the “Total Phospholipids” value ([3]; Table 8, nmol per mg protein) was 322.8 nmol/mg protein and the PC [3, 5] was 12.02 nmol/microgram DNA. The PE [3, 5] was 9.98 nmol/microgram DNA, the PI [3, 5] was 0.571 nmol/microgram DNA and the SM [3, 5] was 0.792 nmol/microgram DNA. For the same compound, the “Total Phospholipids” value [3, 5] was 33.80 nmol/microgram DNA, the “Increase in brain PC per cell (DNA)” value ([3]; rat pups 20 days post-birth) was 36% and the “Increase in brain PE per cell (DNA)” value ([3]; rat pups 20 days post-birth) was 38%. The “Increase in brain PI per cell (DNA)” value ([3]; rat pups 20 days post-birth) was 166%, the “Increase in brain sphingomyelin (SM) per cell (DNA)” value ([3]; rat pups 20 days post-birth) was 78% and the “Increase in synthesis of phospholipids relative to cells administered choline alone” value [4] was “more than 2 fold”.
